Assay results: ChEMBL document CHEMBL5338769, “Discovery of Norisoboldine Analogue III11 as a Novel and Potent Aryl Hydrocarbon Receptor Agonist for the Treatment of Ulcerative Colitis” (J Med Chem, 2023)
Activity calls are given as the source filed them. No cut-off for these calls is given here.

Key:
[1] = tested on: Mus musculus; assay: Anti-colitis activity against DSS-induced ulcerative colitis C57BL/6 mouse model assessed as decrease in colon MPO activity at 40 mg/kg, po administered once a day for 10 days; type: functional, organism-based; conditions: time 10.0 day
[2] = Induction of cell differentiation in C57BL/6 mouse naive regulatory T cells assessed as increase in cell frequency at 3 uM incubated for 72 hrs by flow cytometric analysis (reference value: 24.9%); type: functional
[3] = tested on: Mus musculus; assay: Anti-colitis activity in DSS-induced ulcerative colitis C57BL/6 mouse model assessed as increase in CD4+CD25+Foxp3+ Treg cell ratio in mesenteric lymph nodes at 40 mg/kg, po administered once a day for 10 days by flow cytometric analysis (reference value: 4.5 %); type: functional; conditions: time 10 day
[4] = tested on: Mus musculus; assay: Anti-colitis activity in DSS-induced ulcerative colitis C57BL/6 mouse model assessed as CD4+CD25+Foxp3+ Treg cell percentage in spleen at 40 mg/kg, po administered once a day for 10 days by flow cytometric analysis (reference value: 3.3%); type: functional; conditions: time 10 day
[5] = Induction of cell differentiation in C57BL/6 mouse naive regulatory T cells assessed as increase in IL-10 mRNA level by measuring fold change at 3 uM incubated for 72 hrs by qRT-PCR analysis; type: functional
[6] = molecular target: T1, Aryl hydrocarbon receptor (Mus musculus, UniProt P30561); assay: Activation of AhR transcription in C57BL/6 mouse naive T cells assessed as increase in CYP1A1 mRNA expression by measuring fold change at 3 uM by qRT-PCR analysis relative to control; type: cell-based; conditions: T-cell, read-out: FC
T1 sequence (P30561 whole entry): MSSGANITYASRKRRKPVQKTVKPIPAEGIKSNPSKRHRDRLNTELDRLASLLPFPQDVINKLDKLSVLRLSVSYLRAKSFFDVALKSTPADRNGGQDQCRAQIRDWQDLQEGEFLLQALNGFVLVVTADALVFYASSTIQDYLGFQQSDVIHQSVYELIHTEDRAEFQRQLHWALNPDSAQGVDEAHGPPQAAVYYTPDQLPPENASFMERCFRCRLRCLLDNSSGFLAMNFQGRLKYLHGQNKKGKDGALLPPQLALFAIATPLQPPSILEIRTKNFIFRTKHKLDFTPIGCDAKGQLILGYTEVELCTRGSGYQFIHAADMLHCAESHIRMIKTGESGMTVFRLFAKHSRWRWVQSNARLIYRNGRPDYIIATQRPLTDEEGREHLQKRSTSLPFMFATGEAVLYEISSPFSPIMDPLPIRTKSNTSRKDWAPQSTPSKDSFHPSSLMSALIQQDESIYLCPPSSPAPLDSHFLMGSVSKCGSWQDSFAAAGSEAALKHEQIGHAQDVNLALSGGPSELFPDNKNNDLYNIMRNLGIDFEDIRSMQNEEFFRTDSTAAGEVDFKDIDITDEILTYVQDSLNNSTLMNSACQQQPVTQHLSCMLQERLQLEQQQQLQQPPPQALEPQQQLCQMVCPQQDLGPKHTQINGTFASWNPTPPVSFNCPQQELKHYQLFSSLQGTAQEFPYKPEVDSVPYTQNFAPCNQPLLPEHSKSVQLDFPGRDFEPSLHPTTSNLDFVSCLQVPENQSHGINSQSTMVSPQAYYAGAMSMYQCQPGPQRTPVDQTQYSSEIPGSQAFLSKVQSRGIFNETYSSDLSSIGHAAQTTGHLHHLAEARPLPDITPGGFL

[7] = Induction of cell differentiation in C57BL/6 mouse naive regulatory T cells assessed as increase in […] mRNA level by measuring fold change at 3 uM incubated for 72 hrs by qRT-PCR analysis; type: functional
[8] = tested on: Mus musculus; assay: In vivo activation of AhR in C57BL/6 mouse assessed as increase in CYP1A1 mRNA expression at 40 mg/kg, po administered once a day for 10 days by qRT-PCR analysis; type: functional, organism-based; conditions: time 10.0 day
[9] = tested on: Mus musculus; assay: Anti-colitis activity in DSS-induced ulcerative colitis C57BL/6 mouse model assessed as CD4+CD25+Foxp3+ Treg cell percentage in spleen at 100 mg/kg, po administered once a day for 10 days by flow cytometric analysis (reference value: 3.3%); type: functional; conditions: time 10 day
[10] = tested on: Mus musculus; assay: In vivo activation of AhR in C57BL/6 mouse assessed as increase in CYP1A1 mRNA expression at 100 mg/kg, po administered once a day for 10 days by qRT-PCR analysis; type: functional, organism-based; conditions: time 10.0 day
[11] = tested on: Mus musculus; assay: Anti-colitis activity in DSS-induced ulcerative colitis C57BL/6 mouse model assessed as CD4+CD25+Foxp3+ Treg cell percentage in mesenteric lymph nodes at 100 mg/kg, po administered once a day for 10 days by flow cytometric analysis (reference value: 4.5 %); type: functional; conditions: time 10 day

fold induction at 3 µM [6] | Structure (SMILES) | Activity [1] | Activity [2] [%] | Activity [3] [%] | Activity [4] [%] | fold change (FC) [5] | fold change (FC) [7] | Activity [8] | Activity [9] [%] | Activity [10] | Activity [11] [%]
1.9 | c1ccc2c(Cc3c[nH]c4ccccc34)c[nH]c2c1 [ARUNDINE] | Active | 34.3 | 6.8 | 2.7 | 2 | 2.1 | Active |  |  | 
 | Nc1ccc(O)c(C(=O)O)c1 [MESALAMINE] |  |  |  |  |  |  |  | 2.6 | Active | 4.4
